# Measurements as given in patent US9101618B2, “Method for treating and/or preventing neurodegenerative disease by adiponectin receptor agonist” (TOKYO METROPOLITAN INSTITUTE OF MEDICAL SCIENCE, priority 2011, dated 2015).
# Where a SMILES comes first, the peptide text is derived from it. The star is where a group is joined. Cbz = O=C(OCc1ccccc1)*
# B1: gAPN: Globular adiponectin (Prospec); adiponectin isoform whose N-terminal collagen-like domain has been cut by protease (protein, listed as Homo sapiens)
# chain: PGEGAYVYRSAFSVGLETYVTIPNMPIRFTKIFYNQQNHYDGSTGKFHCNIPGLYYFAYHITVYMKDVKVSLFKKDKAMLFTYDQYQENNVDQASGSVLLHLEVGDQVWLQVYGEGERNGLYADNDNDSTFTGFLLYHDTN
# modifications: human adiponectin globular domain
# notes: Globular adiponectin (Prospec); adiponectin isoform whose N-terminal collagen-like domain has been cut by protease
# How the values were obtained:
# GSK-3β (beta) = test: Addition of p38 MAPK inhibitor and AMPK inhibitor: phospho-GSK-3β western blotting; type: cell-based, rat; settings: 5 μM inhibitor 10 min, then adiponectin 1 μg/mL 30 min
# Experimental: The aforementioned B103 neuroblastoma cells (α (alpha)S) were inoculated on the 6-well plate and cultured to a state of about 80-90% confluence. After washing with PBS, the aforementioned cells were further cultured for 10 min in an inhibition test medium prepared by adding either 5 μM p38 MAPK inhibitor (SB203580, Promega) or 5 μM AMPK inhibitor (Compound C, Calbiochem) to a serum-free medium. As a control, DMSO was added to a serum-free medium instead of the aforementioned inhibitors. Later, either recombinant human adiponectin (1 μg/mL, trimer, PROSPEC) or PBS was added so as to culture the cells for 30 min. The cells collected were then lysed with the aforementioned cell lysis solution. Supernatants were collected after performing centrifugation at 100,000×g for 30 min, and then subjected to western blotting. Here, western blotting was performed in accordance with the procedures described in example 1.
# When performing western blotting to evaluate signal transduction pathways, the anti-phospho-GSK-3β (beta) (Ser9) antibody (D85E12, Cell Signaling Technology), the anti-GSK-3β (beta) antibody (BD Biosciences) and the anti-β (beta)-actin mouse monoclonal antibody (C-15, Sigma-Aldrich Japan Inc.) were used as primary antibodies after being appropriately diluted. Further, the HRP labeled anti-mouse IgG antibody (DAKO) was used as a secondary antibody after being appropriately diluted.
# B103 neuroblastoma cells [1] = test: Induction of adiponectin mRNA expression by proteasome inhibition (RT-PCR); type: cell-based, rat; settings: 10 μM, six hours, regardless of the presence of α-synuclein expression
# Experimental: RT-PCR was performed in accordance with a method of Fujita et al. (Fujita et al., Nat. Commun. 1:110 (2010)). Total RNA was extracted from the frozen brain samples of the α (alpha)S tg mice and the non tg mice by ISOGEN (NIPPON GENE CO., LTD.), followed by performing DNase (DNase 1, Invitrogen, Life Technologies Japan Ltd.) treatment at 37° C. for 30 min. Here, cDNA was synthesized from the total RNA of 2.5 μg, using Superscript III First-Strand Synthesis system (Invitrogen, Life Technologies Japan Ltd.).
# A reaction condition of PCR was as follows. That is, PCR was at first performed at 94° C. for 5 min, followed by repeating 35 times a cycle of: 95° C. for 30 sec; 55° C. for 30 sec; and 72° C. for 60 sec. Subsequently, PCR was further performed at 72° C. for 10 min before reaching a stationary state and being left standing at 4° C. PCR products were electrophoresed in 1.2% agarose gel. With regard to an mRNA amount of each gene, concentrations of ethidium bromide-stained bands of the PCR products were quantitated by densitometer (ATTO). mRNA amounts of adiponectin were standardized by mRNA amounts of cyclophilin A.
# MG132 (Calbiochem, Merck & Co., Inc.) was used as a proteasome inhibitor. […] Six hours later, the aforementioned cells were collected, and expression of adiponectin mRNA was measured by RT-PCR.
# [2] = system: B103 neuroblastoma cells (α (alpha)S); test: Effect of adiponectin siRNA on aggregate state of α-synuclein (western blotting of soluble fractions); type: cell-based, rat; settings: B103 neuroblastoma cells (αS), siRNA transduced, cultivated 72 hours, western blot
# Experimental: (§1) Rat adiponectin sense strand RNA: 5′-CAAUGACUCUACAUUUACAtt-3′ (SEQ. No. 15), antisense strand RNA: 5′-UGUAAAUGUAGAGUCAUUGtt-3′ (SEQ. No. 16), sense strand RNA of random sequence in control experiment: 5′-UCUUAAUCGCGUAUAAGGCtt-3′ (SEQ. No. 17) and antisense strand RNA: 5′-GCCUUAUACGCGAUUAAGAtt-3′ (SEQ. No. 18) were prepared utilizing Takara siRNA Design Support System (http://www.takara-bio.co.jp/rnai/) (Takara Bio Inc.). The B103 neuroblastoma cells (α (alpha)S) and the B103 neuroblastoma cells (vector) for the control experiment were cultured using a commercially available 6-well plate, and were transfected using Lipofectamine 2000 (Invitrogen, Life Technologies Japan Ltd.) in a state of 30-50% confluence. After performing transfection for six hours, a medium was replaced with a DMEM containing 10% FBS. After performing cultivation for 24 hours, the medium was then replaced with a serum-free DMEM medium so as to avoid effects of adiponectin. After performing cultivation for another three days, transfected B103 neuroblastoma cells were collected so as to be subjected to a detection of an aggregate state of α (alpha)-synuclein and a measurement of proteasomal activity. […]
# Extraction of each soluble fraction and quantification of protein in each soluble fraction by western blotting were performed in accordance with procedures similar to those of example 1 through example 3.
# [3] = system: B103 neuroblastoma cells (α (alpha)S); test: Thioflavin T staining of adiponectin siRNA-transduced cells; type: cell-based, rat; settings: α-synuclein expressing neuroblastoma cells with adiponectin expression suppressed
# Experimental: as §1, with “activity. Further, transfection to B103 neuroblastoma cells for thioflavin T staining were carried out on a polylysine-coated cover glass.” for “activity.”
# B103 neuroblastoma cells [4] = test: Measurement of proteasomal activity in siRNA-transduced cells; type: cell-based, rat; settings: compared to cells transduced with siRNA of random sequence
# Experimental: as §1, with “FBS.” for “FBS. After performing cultivation for 24 hours, the medium was then replaced with a serum-free DMEM medium so as to avoid effects of adiponectin. After performing cultivation for another three days, transfected B103 neuroblastoma cells were collected so as to be subjected to a detection of an aggregate state of α (alpha)-synuclein and a measurement of proteasomal activity.”
# siRNA-transduced B103 neuroblastoma cells were collected with HEPES buffer (50 mM HEPES (pH 7.4), 10 mM EDTA, 10 mM NaCl). […] Protein concentrations were measured, and […] thereof was dissolved in HEPES buffer containing 40 μM of benzyloxycarbonyl-Leu-Leu-Glu-amidomethylcoumarin fluorescent proteasome substrate (Chemicon, Japan Millipore Corporation). Proteasomal activity was calculated as follows. That is, a disintegrated amount of substrate was measured by Berthold Mithras LB940 microplate reader (Berthold Japan co. ltd.), according to time for one hour and at 37° C. […]
# α (alpha)S tg mouse [5] = test: Continuous nasal administration of globular adiponectin: immunohistochemical staining of brain; type: in vivo
# Experimental: (§2) An α (alpha)S tg mouse and a non tg mouse were distinguished in accordance with the method described in example 2. Globular adiponectin (gAPN) was nasally administered to the α (alpha)S tg mouse and the non tg mouse on days 0, 3, 6, 9, 12, 15, 18 and 21. Further, as a control, PBS was nasally administered to the α (alpha)S tg mouse and the non tg mouse on days 0, 3, 6, 9, 12, 15, 18 and 21. When performing nasal administration, 10 μL of the transmucosal absorption enhancer (PBS containing 5 mg/mL poly-L-arginine hydrochloride (molecular mass>70,000 (Sigma-Aldrich Japan Inc.)) was nasally administered to the mouse. Half an hour later, either 10 μL of globular adiponectin (PBS containing 1 mg/mL gAPN (Prospec)) or 10 μL of PBS was nasally administered to the mouse. On day 22 of nasal administration, the aforementioned mouse was euthanized in accordance with the method described in example 2, followed by collecting brain samples thereof. The hemispheres used for pathological analysis were immersion-fixed using 4% paraformaldehyde, followed by being embedded in paraffin. The other hemispheres used for western blotting were frozen by liquid nitrogen and stored at −80° C.
# Immunohistochemical staining was performed in a standard manner known to those skilled in the art. Briefly, thin sliced sections were prepared at a thickness of 4 μm, using the brain samples embedded in paraffin. After being deparaffinized, the thin sliced sections were placed in a 10 mM sodium citrate buffer solution (pH 6.0) to be subjected to an antigen activation treatment (95° C., 10 min) using microwave (MW). After completing the antigen activation treatment, the thin sliced sections were further treated for 15 min with methanol containing 3% hydrogen peroxide. After washing, the thin sliced sections were then subjected to blocking for 30 min, using 10% goat normal serum (Vector Laboratories, Inc.)/TBS (25 mM Tris-HCl (pH 7.5), 0.15 M NaCl). Later, the thin sliced sections were incubated overnight at 4° C. with a primary antibody (anti-α (alpha)-synuclein antibody or anti-GFAP antibody) diluted with 0.1% bovine serum albumin (BSA)/TBS. After washing, the thin sliced sections were further incubated for 20 min at room temperature with a secondary antibody (biotin labeled anti-mouse IgG antibody (Vector Laboratories, Inc.)) diluted with 0.1% BSA/TBS. When performing staining, there were used ABC kit (Vector Laboratories, Inc.) and 3,3′-diaminobenzidine tetrahydrochloride (DAB). After completing staining, the thin sliced sections were observed using a microscope.
# α (alpha)S tg mouse [6] = test: Continuous nasal administration of globular adiponectin: GFAP in surfactant insoluble fraction; type: in vivo; settings: versus gAPN non-administration group
# Experimental: as §2, with “C. […]” for “C.”
# α (alpha)S tg mouse [7] = test: Continuous nasal administration of globular adiponectin: α-synuclein aggregation in various fractions; type: in vivo; settings: cerebral cortex, gAPN-administered group
# Experimental: as §2
# The TBS soluble fraction, the SDS soluble fraction and the formic acid soluble fraction were prepared from the cerebral cortex of the brain sample in accordance with the method described in example 1. […]
# [8] = nasal, days 0-21 every 3 days, brain on day 22
molecule,measurement,setting,value
c1cc(-c2cnn3cc(-c4ccc(OCCN5CCCCC5)cc4)cnc23)ccn1 [Compound C],phosphorylated GSK-3β in surfactant soluble fraction,GSK-3β (beta),detected
CC(C)C[C@@H](C=O)NC(=O)[C@H](CC(C)C)NC(=O)[C@H](CC(C)C)NC(=O)OCc1ccccc1 [MG132] (Cbz-Leu-Leu-Leu-aldehyde),induction of adiponectin expression (mRNA),B103 neuroblastoma cells [1],increased
C[S+]([O-])c1ccc(-c2nc(-c3ccncc3)c(-c3ccc(F)cc3)[nH]2)cc1 (stereo not drawn) [SB203580],phosphorylated GSK-3β in surfactant soluble fraction,GSK-3β (beta),not detected
"APN siRNA: Rat adiponectin siRNA, sense strand SEQ. No. 15, antisense strand SEQ. No. 16 (sense CAAUGACUCUACAUUUACATT; antisense UGUAAAUGUAGAGUCAUUGTT; RNA strands with tt 3' overhangs, overhang chemistry not given here, further chemistry not given here)",α-synuclein in the formic acid soluble fraction,[2],also detected
same,thioflavin T staining (aggregation of protein),[3],thioflavin T-positive
same,proteasomal activity,B103 neuroblastoma cells [4],low
B1,adverse effects,α (alpha)S tg mouse [5]; continuous nasal administration,not observed particularly
same,growth of astrocyte in cerebral cortex,α (alpha)S tg mouse [5]; [8],hardly detected
same,α-synuclein aggregates in olfactory bulb,α (alpha)S tg mouse [5]; [8],hardly detected
same,α-synuclein aggregates in thalamus,α (alpha)S tg mouse [5]; [8],hardly detected
same,GFAP in surfactant insoluble fraction,α (alpha)S tg mouse [6],observed less
same,amount of α-synuclein aggregates in SDS soluble fraction,α (alpha)S tg mouse [7],decreased significantly
